In one data set the target is T1, human delta receptor (Homo sapiens, UniProt P41143).
T1 construct: purchased Perkin Elmer, Boston, Mass; 6110549; host or cells: HEK-293 cells
The data set is described as follows: radioligand binding, human delta receptor, HEK-293 cell membranes. The note with it: cell not marked (rat), species not given, read-out: δ.

A further data set has as its target T2, human mu opioid receptor (Homo sapiens, UniProt P35372).
T2 construct: purchased Perkin Elmer, Boston, Mass; 6110535; host or cells: CHO cells
Nature of the data set: radioligand binding, human mu opioid receptor, CHO cell membranes. Particulars: species not given, read-out: μ.

A further data set deals with mouse vas deferens. The data set is described as follows: electrically stimulated mouse vas deferens (MVD) ED50. The note with it: ED50, inhibition of electrically induced contractions. Type of data set: cell-based.
For data set [1], the system named is seizure-like convulsions in mice. Nature of the data set: mouse seizure-like convulsions. Type of data set: in vivo. The method, then:
Mouse Seizure-Like Convulsions and antinociception: The central (CNS) effects of the compound were tested with central delta receptor mediated seizure-like convulsions and central mu opioid receptor mediated antinociceptive effects in mice. Male CD-1 mice (Charles River, Raleigh, N.C.) weighing 20-25 g were used to determine the seizure-like convulsion and antinociception activities for compounds.
They were then observed for seizure-like convulsions for one hour following the treatment. A seizure-like event was recorded if a mouse had uncontrollable clonic (or tonic/clonic) muscle movements that encompassed its entire body, usually followed by a brief cataleptic period. Catalepsy was determined by placing the animal's front paws on a horizontal bar held 2-3 inches from the cage floor. Cataleptic animals made no attempt to remove their paws.

T1 sequence (P41143 whole entry): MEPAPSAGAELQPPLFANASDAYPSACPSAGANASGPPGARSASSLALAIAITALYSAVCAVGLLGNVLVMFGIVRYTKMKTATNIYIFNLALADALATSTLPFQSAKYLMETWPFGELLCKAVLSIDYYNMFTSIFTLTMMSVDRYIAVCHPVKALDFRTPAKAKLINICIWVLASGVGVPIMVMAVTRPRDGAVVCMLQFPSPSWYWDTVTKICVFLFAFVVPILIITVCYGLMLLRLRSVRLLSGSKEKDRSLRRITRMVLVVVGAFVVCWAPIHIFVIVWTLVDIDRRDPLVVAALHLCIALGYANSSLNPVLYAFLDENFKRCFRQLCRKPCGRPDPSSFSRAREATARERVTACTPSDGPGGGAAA
T2 sequence (P35372 whole entry): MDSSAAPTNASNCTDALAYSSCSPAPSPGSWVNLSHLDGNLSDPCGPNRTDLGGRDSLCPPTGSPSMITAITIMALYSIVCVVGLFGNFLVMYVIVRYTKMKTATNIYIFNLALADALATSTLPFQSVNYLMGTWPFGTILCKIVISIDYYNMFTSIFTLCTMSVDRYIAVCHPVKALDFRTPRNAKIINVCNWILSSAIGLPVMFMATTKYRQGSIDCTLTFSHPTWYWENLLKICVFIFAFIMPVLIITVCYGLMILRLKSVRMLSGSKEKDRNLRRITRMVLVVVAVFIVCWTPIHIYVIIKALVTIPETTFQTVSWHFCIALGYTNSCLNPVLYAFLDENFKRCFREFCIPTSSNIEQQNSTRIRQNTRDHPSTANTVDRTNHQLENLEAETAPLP

On to `C[C@@H]1CN(C(c2cccc(O)c2)c2cccc(C(=O)N3CCCN(CC(=O)O)CC3)c2)[C@@H](C)CN1CC1CC1` (stereo partly shown), for which the Ki on human delta receptor came out at 6.8 nM; on human mu opioid receptor, 33.1 nM. For the same compound, in the data set on mouse vas deferens, the EC50 was found to be 65.2 nM. The Seiz. in data set [1] (20 mg/kg IV) is reported as 0% 20 mg/kg IV.
Consider `C[C@@H]1CN([C@@H](c2cccc(O)c2)c2cccc(C(=O)N3CCN(CCCC(=O)O)CC3)c2)[C@@H](C)CN1Cc1cccc(F)c1` [Example 82, 4-(4-{3-[(R)-((2S,5R)-4-(3-Fluorobenzyl)-2,5-dimethyl-piperazin-1-yl)-(3-hydroxy-phenyl)-methyl]-benzoyl}-piperazin-1-yl)-butyric acid], for which the Ki came out at 31.1 nM on human delta receptor and 13.8 nM at human mu opioid receptor. In the data set with mouse vas deferens, this compound yielded an EC50 of 2.65 nM. The Seiz. in data set [1] (10 mg/kg IV) is on record as 0% 10 mg/kg IV.
The matching figures for `C=CCN1C[C@H](C)N([C@@H](c2cccc(O)c2)c2cccc(C(=O)N3CCC[C@H]3C(=O)OC)c2)C[C@H]1C` [Example 143, 1-{3-[(R)-((2S,5R)-4-Allyl-2,5-dimethyl-piperazin-1-yl)-(3-hydroxy-phenyl)-methyl]-benzoyl}-pyrrolidine-2-carboxylic acid (S)-methyl ester]: 1.5 nM, 0.5 nM, 1.79 nM and 10% 10 mg/kg IV.
On the same counts, the results for `C=CCN1C[C@H](C)N([C@@H](c2cccc(O)c2)c2cccc(C(=O)N3CCNCC3)c2)C[C@H]1C` [Example 58, {3-[(R)-((2S,5R)-4-Allyl-2,5-dimethyl-piperazin-1-yl)-(3-hydroxy-phenyl)-methyl]-phenyl}-piperazin-1-yl-methanone] are 5.1 nM, 1.1 nM, 12.1 nM and 0% 10 mg/kg IV.
`C=CCN1C[C@H](C)N([C@@H](c2cccc(O)c2)c2cccc(C(=O)N3CCC(NCc4ccc(C(=O)O)cc4)CC3)c2)C[C@H]1C` [Example 140, 4-[(1-{3-[(R)-((2S,5R)-4-Allyl-2,5-dimethyl-piperazin-1-yl)-(3-hydroxy-phenyl)-methyl]-benzoyl}-piperidin-4-ylamino)-methyl]-benzoic acid]: the Ki at human delta receptor was 1.2 nM; at human mu opioid receptor, 4.6 nM. In addition, the EC50 with mouse vas deferens is 6.74 nM. In addition, the Seiz. in data set [1] (10 mg/kg IV) turned out to be 0% 10 mg/kg IV.
The matching figures for `C=CCN1C[C@H](C)N([C@@H](c2cccc(O)c2)c2cccc(C(=O)N3CCN(CC(=O)O)CC3)c2)C[C@H]1C` [Example 64, (4-{3-[(R)-((2S,5R)-4-Allyl-2,5-dimethyl-piperazin-1-yl)-(3-hydroxy-phenyl)-methyl]-benzoyl}-piperazin-1-yl)-acetic acid]: 0.79 nM, 9 nM, 5.18 nM and 30% 10 mg/kg IV.
Turning to `C=CCN1C[C@H](C)N([C@@H](c2cccc(O)c2)c2cccc(C(=O)N3CCN(CCCCC(=O)OCC)CC3)c2)C[C@H]1C` [Example 83, 5-(4-{3-[(R)-((2S,5R)-4-Allyl-2,5-dimethyl-piperazin-1-yl)-(3-hydroxy-phenyl)-methyl]-benzoyl}-piperazin-1-yl)-pentanoic acid ethyl ester], the Ki on human delta receptor was 10.7 nM; at human mu opioid receptor, 8.9 nM. This compound yielded a concentration for a half-maximal effect (EC50) in the data set on mouse vas deferens of 11.8 nM. The Seiz. in data set [1] (10 mg/kg IV) is on record as 30% 10 mg/kg IV.
`C=CCN1C[C@H](C)N([C@@H](c2cccc(O)c2)c2cccc(C(=O)N3CCN(CCC(=O)OCC)CC3)c2)C[C@H]1C` [Example 72, 3-(4-{3-[(R)-((2S,5R)-4-Allyl-2,5-dimethyl-piperazin-1-yl)-(3-hydroxy-phenyl)-methyl]-benzoyl}-piperazin-1-yl)-propionic acid ethyl ester]: the Ki on human delta receptor worked out at 0.61 nM; at human mu opioid receptor it was 2.4 nM. In addition, it took 8.03 nM to reach a half-maximal effect with mouse vas deferens (EC50). Also, the Seiz. in data set [1] (10 mg/kg IV) was found to be 20% 10 mg/kg IV.
In the case of `C[C@@H]1CN(C(c2cccc(O)c2)c2cccc(C(=O)N3CCCN(CCCC(=O)O)CC3)c2)[C@@H](C)CN1Cc1cccc(F)c1` (stereo partly shown), the Ki on human delta receptor came to 94 nM; at human mu opioid receptor, 0.27 nM. For the same compound, in the data set with mouse vas deferens, the EC50 stood at 6.37 nM. In data set [1] (10 mg/kg IV), this compound gave a Seiz. of 0% 10 mg/kg IV.
On the same counts, the results for `CCOC(=O)CCCN1CCN(C(=O)c2cccc([C@H](c3cccc(O)c3)N3C[C@@H](C)N(Cc4ccccc4)C[C@@H]3C)c2)CC1` [Example 79, 4-(4-{3-[(R)-((2S,5R)-4-Benzyl-2,5-dimethyl-piperazin-1-yl)-(3-hydroxy-phenyl)-methyl]-benzoyl}-piperazin-1-yl)-butyric acid ethyl ester] are 3.7 nM, 1.3 nM, 3.95 nM and 80% 10 mg/kg IV.
`C=CCN1C[C@H](C)N([C@@H](c2cccc(O)c2)c2cccc(C(=O)N3CCN(CC(=O)OCC)CC3)c2)C[C@H]1C` [Example 63, (4-{3-[(R)-((2S,5R)-4-Allyl-2,5-dimethyl-piperazin-1-yl)-(3-hydroxy-phenyl)-methyl]-benzoyl}-piperazin-1-yl)-acetic acid ethyl ester]: the Ki was 0.44 nM on human delta receptor and 0.47 nM at human mu opioid receptor. Besides, the concentration for a half-maximal effect (EC50) in the data set on mouse vas deferens was 7.71 nM. This compound also showed a Seiz. in data set [1] (10 mg/kg IV) of 20% 10 mg/kg IV.
The matching figures for `CCOC(=O)CCCN1CCCN(C(=O)c2cccc(C(c3cccc(O)c3)N3C[C@@H](C)N(Cc4ccccc4)C[C@@H]3C)c2)CC1` (stereo partly shown): 50.1 nM, 1.2 nM, 10.6 nM and 30% 10 mg/kg IV.
On the same counts, the results for `C=CCN1C[C@H](C)N([C@@H](c2cccc(O)c2)c2cccc(C(=O)N3CCC(NCCCC(=O)O)CC3)c2)C[C@H]1C` [Example 142, 4-(1-{3-[(R)-((2S,5R)-4-Allyl-2,5-dimethyl-piperazin-1-yl)-(3-hydroxy-phenyl)-methyl]-benzoyl}-piperidin-4-ylamino)-butyric acid] are 1.7 nM, 8.7 nM, 12.5 nM and 0% 10 mg/kg IV.
Consider `C=CCN1C[C@H](C)N([C@@H](c2cccc(O)c2)c2cccc(C(=O)N3CCN(C(=O)OCC)CC3)c2)C[C@H]1C` [Example 57, 4-{3-[(R)-((2S,5R)-4-Allyl-2,5-dimethylpiperazin-1-yl)(3-hydroxy-phenyl)methyl]benzoyl}piperazine-1-carboxylic acid ethyl ester], for which the figures for the Ki on human delta receptor and at human mu opioid receptor were 0.81 nM and 0.8 nM, respectively. In the data set on mouse vas deferens, this compound displayed a 50% effective concentration (EC50) of 5.15 nM. Also, in data set [1] (10 mg/kg IV), the Seiz. was determined as 40% 10 mg/kg IV.
On the same counts, the results for `C[C@@H]1CN(C(c2cccc(O)c2)c2cccc(C(=O)N3CCCN(CCCCC(=O)O)CC3)c2)[C@@H](C)CN1Cc1cccc(F)c1` (stereo partly shown) are 35.4 nM, 34.8 nM, 14.7 nM and 0% 10 mg/kg IV.
As to `C=CCN1C[C@H](C)N([C@@H](c2cccc(O)c2)c2cccc(C(=O)N3CCN(CCCC(=O)OCC)CC3)c2)C[C@H]1C` [Example 74, (4-{3-[(R)-((2S,5R)-4-Allyl-2,5-dimethyl-piperazin-1-yl)-(3-hydroxy-phenyl)-methyl]-benzoyl}-piperazin-1-yl)-butyric acid ethyl ester], the Ki at human delta receptor was 123 nM; at human mu opioid receptor, 1.95 nM. Also, a half-maximal response in the data set with mouse vas deferens (EC50) required 23.3 nM. Further, in data set [1] (10 mg/kg IV), the Seiz. is 10% 10 mg/kg IV.

Usually EC50 stands for the concentration needed to bring the measured effect to its halfway point. A higher EC50 goes with weaker potency.

Source of the values: patent US7683168B2, “Compositions of novel opioid compounds and method of use thereof” (priority 2005, dated 2010).
